Experimental data taken from patent publication US9682960B2 (priority 2013, dated 2017).
“And” between values parts separate entries of the source, which are not always exact repeats. Equal entries are not always repeated. “Also recorded” adds a separate entry of the source. Where two headings read alike, the source gives them in different places.

Columns and labels:
Human Androgen Receptor = Human Androgen Receptor (Homo sapiens (Human), UniProt P10275); assay: Androgen receptor assay: [3H]R1881 displacement, cytosol of HEK-293 cells transfected with hAR (hydroxylapatite assay); assay type: binding; settings: for times more potent than bicalutamide to displace R1881 from the human AR: versus bicalutamide; for Human Androgen Receptor Binding RBA (%) R1881 = 100: relative binding affinity
Chain of Human Androgen Receptor (P10275 whole entry): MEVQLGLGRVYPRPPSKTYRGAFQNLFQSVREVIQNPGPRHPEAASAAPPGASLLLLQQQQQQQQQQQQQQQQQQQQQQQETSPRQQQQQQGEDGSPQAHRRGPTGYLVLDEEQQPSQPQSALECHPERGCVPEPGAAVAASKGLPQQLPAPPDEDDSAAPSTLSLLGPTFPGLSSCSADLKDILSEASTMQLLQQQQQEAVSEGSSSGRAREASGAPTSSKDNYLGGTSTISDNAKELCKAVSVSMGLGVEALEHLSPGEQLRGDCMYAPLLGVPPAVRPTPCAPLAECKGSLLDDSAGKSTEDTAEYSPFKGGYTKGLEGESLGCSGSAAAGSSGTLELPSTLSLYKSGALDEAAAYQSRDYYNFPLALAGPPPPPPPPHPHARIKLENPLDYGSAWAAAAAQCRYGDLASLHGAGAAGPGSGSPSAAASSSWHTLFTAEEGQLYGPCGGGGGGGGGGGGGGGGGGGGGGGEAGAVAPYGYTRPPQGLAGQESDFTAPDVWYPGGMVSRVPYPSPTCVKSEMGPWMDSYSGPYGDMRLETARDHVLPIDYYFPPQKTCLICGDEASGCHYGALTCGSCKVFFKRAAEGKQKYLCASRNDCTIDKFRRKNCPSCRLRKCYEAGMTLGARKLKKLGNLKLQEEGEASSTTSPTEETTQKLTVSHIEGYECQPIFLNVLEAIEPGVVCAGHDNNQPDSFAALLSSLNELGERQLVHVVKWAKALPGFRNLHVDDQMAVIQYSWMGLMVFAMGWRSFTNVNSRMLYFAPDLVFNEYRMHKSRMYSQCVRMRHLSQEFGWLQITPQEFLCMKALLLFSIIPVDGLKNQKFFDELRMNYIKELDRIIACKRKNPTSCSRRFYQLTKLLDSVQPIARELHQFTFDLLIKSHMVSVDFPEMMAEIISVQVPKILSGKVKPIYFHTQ

Rat Androgen Receptor = Rat Androgen Receptor (Rattus norvegicus (Rat), UniProt P15207); assay: Androgen receptor assay: [3H]R1881 displacement, rat prostate cytosol; assay type: binding; settings: for times more potent than OH-flutamide in the rat AR assay: versus OH-flutamide; for times more potent than bicalutamide in the rat AR assay: versus bicalutamide
Chain of Rat Androgen Receptor (P15207 whole entry, looked up): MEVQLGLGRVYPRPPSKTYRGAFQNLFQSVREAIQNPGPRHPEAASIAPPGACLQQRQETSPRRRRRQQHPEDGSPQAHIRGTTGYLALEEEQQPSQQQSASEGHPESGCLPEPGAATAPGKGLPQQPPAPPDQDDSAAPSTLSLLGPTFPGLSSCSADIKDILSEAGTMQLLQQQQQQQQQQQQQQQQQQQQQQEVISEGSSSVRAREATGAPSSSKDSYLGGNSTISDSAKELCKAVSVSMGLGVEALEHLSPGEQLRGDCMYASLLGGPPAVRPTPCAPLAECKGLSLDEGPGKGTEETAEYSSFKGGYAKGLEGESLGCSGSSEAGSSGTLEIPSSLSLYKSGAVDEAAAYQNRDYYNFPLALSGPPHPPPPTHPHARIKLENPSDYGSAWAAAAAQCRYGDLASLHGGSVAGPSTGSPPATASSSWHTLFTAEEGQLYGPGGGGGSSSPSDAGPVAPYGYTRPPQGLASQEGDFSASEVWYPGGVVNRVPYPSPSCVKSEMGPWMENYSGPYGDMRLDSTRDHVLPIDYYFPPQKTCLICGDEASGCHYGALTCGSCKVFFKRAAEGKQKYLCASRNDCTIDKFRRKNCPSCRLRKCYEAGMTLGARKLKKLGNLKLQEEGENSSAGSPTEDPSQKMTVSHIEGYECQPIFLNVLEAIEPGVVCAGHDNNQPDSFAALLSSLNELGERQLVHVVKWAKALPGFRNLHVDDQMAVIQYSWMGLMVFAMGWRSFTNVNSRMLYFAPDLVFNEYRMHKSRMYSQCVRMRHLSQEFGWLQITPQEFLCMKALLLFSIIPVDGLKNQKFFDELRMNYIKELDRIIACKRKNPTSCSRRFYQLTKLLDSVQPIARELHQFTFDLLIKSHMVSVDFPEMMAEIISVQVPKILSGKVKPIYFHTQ
Method: On the morning of the binding assay, ventral prostates collected from 24 h-gonadectomized rats were homogenized in buffer A (1 g of tissue in 5 mL) and the homogenate was centrifuged as described above.
Androgen binding is measured using the hydroxylapatite (HAP) assay. In brief, the radioactive steroid [^3H]R1881 solubilized in ethanol is diluted with buffer B (10 mM Tris-HCl, 1.5 mM EDTA disodium salt, 10 mM α-monothioglycerol, pH 7.4). Aliquots of the cell or prostate cytosol preparation (0.1 ml) are then incubated with 5 nM [^3H]R1881 (0.1 ml, ˜100 000 cpm) in the presence or absence of the indicated concentrations of unlabeled compounds (0.1 ml, prepared in buffer B containing 30% ethanol) for 16-18 h at 0-4° C. Triamcinolone acetonide (TAC; 100 nM) is added to mask progesterone receptors. Unbound steroids are separated by incubation for 40 min at 0-4° C. with 0.3 ml HAP prepared in buffer P (50 mM Tris-HCl, 10 mM KH2PO4, pH 7.4). After incubation with HAP and 10 min of centrifugation at 1000×g, the pellet is washed 3 times with 1 ml of buffer P. Thereafter, the radioactivity is extracted from the pellet by incubation at room temperature for 60 min with 1 ml of ethanol. After centrifugation, the supernatant is decanted into a scintillation vial and the pellet is extracted again with ethanol. After the addition of scintillation liquid, the radioactivity is measured in a liquid scintillation counter.
Relative binding affinity (RBA) was calculated by the following formula: RBA (%) [IC50(R1881)/IC50 (compound)]×100 B—In Vitro Assay of Androgenic/Antiandrogenic Activity

[1] = tested on: Shionogi mouse mammary carcinoma cells; assay: In vitro androgenic/antiandrogenic activity: proliferation of Shionogi cells with or without DHT; assay type: cell-based; settings: for IC50: Mus musculus, read-out: Shionogi Antiandrogenic Activity IC50, DHT (0.3 nM)-stimulated cell number
[2] = tested on: PSA levels in human prostatic carcinoma LNCaP cells; assay: Prostate specific antigen (PSA) in LNCaP cells with or without R1881; assay type: cell-based; settings: for inhibition at 0.1 µM: Homo sapiens, read-out: LNCaP Cells Antiandrogenic activity (PSA) % inhibition at 10^−7M, R1881-stimulated, 10^−7M of compound; for inhibition at 0.1 µM / times more potent than bicalutamide in blocking R1881-stimulated PSA secretion: LNCaP; for times more potent than bicalutamide in blocking R1881-stimulated PSA secretion: versus bicalutamide; for stimulation at 10^−7M of basal PSA levels in LNCaP cells (in words): basal (no R1881)
Method: LNCaP cells were cultured as previously described (Qi et al. 2001). In brief, the LNCaP cells were cultured for 6 days in 1.0 ml RPMI 1640 supplemented with hormone-depleted 0.25% FCS before each experiment. At the start of the experiment, half of the medium (0.5 ml) was replaced with 0.5 ml of identical medium containing the appropriate concentrations of tested compounds, in the presence or absence of 1.0 nM of R1881. After 72 h of incubation of LNCaP cells with compounds, 0.5 ml of culture medium was removed for PSA determination. PSA levels were measured using the PSA [^125I] IRMA KIT (REF: RK-10CT) from Izotop (Institute of Isotopes Ltd, Budapest, Hungary).

[3] = Oral absorption, Experiment 2: plasma, intraprostatic and intramuscular concentrations after 0.5 mg EM-9150/animal in castrated male rats; assay type: in vivo; settings: Sprague-Dawley, rat, 0.5 mg/animal; for concentration at 7 h: po
Method: Castrated male Sprague-Dawley rats (Crl:CD(SD)Br) weighing 275-375 g were used for pharmacokinetic studies. Animals were fasted (access to water only) from around 16 h00 the afternoon prior to the dosing day.
Blood samples (˜0.5 mL/timepoint) were collected by jugular venipuncture on animals under isoflurane anesthesia at 1, 2, 3, 4, 7 and 24 h post-dosing. Blood samples were put into tubes containing EDTA(K3) as anticoagulant and centrifuged at 4° C. for 10 min at 1700-2400 g. The resulting plasma was frozen on dry ice and kept at −80° C. pending analysis. […] Prostates and bulbocavernosus muscles were frozen in liquid nitrogen and kept at −80° C. until being used. A buffer and an ethanol-acetone solution were added to the tissue and homogenized with a Polytron. The supernatant was collected, evaporated to dryness and reconstituted in buffer.
Intraprostatic and intramuscular concentrations of the compounds were also determined by LC-MS/MS.

[4] = tested on: castrated (CX) immature male rats; assay: Systemic androgenic (agonistic) activity in orchidectomized (CX) immature male rats; assay type: in vivo, rat; settings: for CX Agonistic activity % Stimulation Bulbo / CX Agonistic activity % Stimulation SV / CX Agonistic activity % Stimulation Prostate: 0.1 mg/rat/po, 7 days; for CX Agonistic activity % Stimulation Bulbo: bulbocavernosus muscles weight; for CX Agonistic activity % Stimulation SV: seminal vesicles weight; for CX Agonistic activity % Stimulation Prostate: ventral prostate weight; for agonistic activity on ventral prostate weight (in words): daily oral dosing for 7 days
Androgen Receptor = assay: Overall classification (antiandrogen / SARM) in the models studied
[5] = tested on: intact immature male rats; assay: Activity in intact immature male rats; assay type: in vivo, rat
Method: Immature male rats (Crl:CD(SD)Br) 22 to 24-day old weighting 60-80 g at start of treatment were obtained from Charles-River, Inc. (St-Constant, Quebec, Canada) and housed up to 5 per cage in plastic bins in a temperature (23±1° C.)- and light (12 h light/day, lights on at 7 h15)-controlled environment. The rats were fed rodent chow and tap water ad libitum. […] The day following their arrival, the designed animals were orchidectomized (CX) under Isoflurane anesthesia (Study Day 1) via the scrotal route and were then randomly assigned to groups of 3 to 5 animals. At the time of orchidectomy, one silastic implant of dihydrotestosterone (DHT; 1 cm length of pure DHT in silastic tubing having inner and outer diameter of 0.078 and 0.125 inches, respectively), was inserted subcutaneously in the dorsal area of animals assigned to the evaluation of antiandrogenic activity. In the case of intact animal experiments, the orchidectomy and the silastic implant installation are omitted.
Tested compounds were administered orally once daily for 7 days from Study Day 2 to Study Day 8 at doses generally ranging from 0.1 and 0.5 mg/animal. Compounds were either solubilized in dimethylsulfoxide (DMSO, 10% final concentration) and were administered as a solution/suspension in 0.9% NaCl-1% gelatin or were administered as suspensions in 0.4% aqueous methylcellulose. Animals of the control groups received the corresponding vehicle alone during the 7-day period. Some animals were treated with the antiandrogen Flutamide or Casodex as reference. The animals under isoflurane anesthesia were killed by cervical dislocation on day 9 of the study, approximately 24 h after the last dosing. The ventral prostate, seminal vesicles and bulbocavernosus muscles were rapidly dissected and weighed.
For calculations with intact animals, control DHT is replaced by control intact and the % stimulation is subtracted by 100%. W is the weight of the prostate, seminal vesicles or bulbocavernosus muscles. Discussion

[6] = Oral absorption, Experiment 1: plasma levels after single oral 20 mg EM-9150/kg in intact male rats (LC-MS/MS); assay type: in vivo, rat; settings: metabolite after oral EM-9150
Method: Intact 6 week-old male rats (Crl:CD(SD)) weighing 150-205 g were obtained from Charles-River Canada Inc. (St-Constant, Quebec, Canada) and housed up to 3 per cage in plastic bins in a temperature (19° C. to 25° C.)- and light (12 h light/day)-controlled environment. They were acclimatized to laboratory conditions for 2 weeks prior to the pharmacokinetic (PK) study. The rats were fed rodent chow (PMI Nutrition International Certified Rodent Chow No. 5CR4 (14% protein)) and tap water ad libitum. Animals were weighing 165-200 g at the time of dosing.
Blood samples (˜0.4 mL/timepoint/rat) were collected by jugular venipuncture at 0.5, 1, 2, 3.5, 7 and 24 h post-dosing from 3 animals/timepoint. Blood samples were put into tubes containing EDTA(K3) as anticoagulant and centrifuged at 4° C. for 10 min at 2700 rpm. The resulting plasma was separated and transferred to 2 polypropylene tubes, frozen immediately over dry ice and kept in a freezer set to maintain −80° C. until analysis.

[7] = tested on: castrated (CX) immature male rats; assay: Systemic androgenic (agonistic) activity in orchidectomized (CX) immature male rats; assay type: in vivo; settings: 0.1 mg/rat, s.c. (subcutaneous)
[8] = bulbocavernosus muscles, read-out: intramuscular concentration
[9] = plasma, read-out: plasma concentration
[10] = ventral prostate, read-out: intraprostatic concentration
[11] = immature castrated rat, oral 7 days

SMILES	times more potent than bicalutamide to displace R1881 from the human AR (Human Androgen Receptor) [times]	times more potent than OH-flutamide in the rat AR assay (Rat Androgen Receptor) [times]	times more potent than bicalutamide in the rat AR assay (Rat Androgen Receptor) [times]	stimulation at 10^−7M on basal Shionogi cell proliferation (in words) ([1]; basal (no DHT), 10^−7M)	inhibition at 0.1 µM [2] [%]	times more potent than bicalutamide in blocking R1881-stimulated PSA secretion [2]	stimulation at 10^−7M of basal PSA levels in LNCaP cells (in words) [2]	concentration at 7 h [3, 8] [ng/g]	concentration at 7 h [3, 9] [ng/mL]	concentration at 7 h [3, 10] [ng/g]	CX Agonistic activity % Stimulation Bulbo [4]	CX Agonistic activity % Stimulation SV [4]	CX Agonistic activity % Stimulation Prostate [4]	agonistic activity on ventral prostate weight (in words) ([4]; immature castrated rat)	classification as antiandrogen or SARM (in words) (Androgen Receptor)	Human Androgen Receptor Binding RBA (%) R1881 = 100 (Human Androgen Receptor) [%]	IC50 [1] [µM]	other results
CC1(C)C(=O)N(c2ccc(C#N)c(Cl)c2)C(=O)N1CCCOc1ccc(-c2ccncc2)cc1Cl [EM-9150]	247	65	32	absence of stimulation	57	11.0 times and 10 times	absence of stimulation; also recorded: no stimulation	1.2	0.9	2.9	1%	0%	0%	no agonistic activity	antiandrogens			Rat Androgen Receptor Binding RBA (%) R1881 = 100 (Rat Androgen Receptor; relative binding affinity, R1881 = 100, prostate cytosol): 6.5%; times more inhibition of PSA levels in human LNCaP cells compared to the thiohydantoins ([2]; versus thiohydantoins of WO 2006/133567): ≥ 2 times; Kp at 7 h ([3]; prostate / plasma, oral, read-out: concentration in the rat prostate versus plasma): ~3
CC1(C)C(=O)N(c2ccc(C#N)c(Cl)c2)C(=O)N1CCCOc1ccc(-c2cc[n+]([O-])cc2)cc1Cl [EM-9156]	57	53	27	absence of stimulation	~50	9.2 times and 10 times	absence of stimulation	12.7	22.3	19.3	5%	0%	1%	no agonistic activity	antiandrogens			Rat Androgen Receptor Binding RBA (%) R1881 = 100 (Rat Androgen Receptor): 5.3%
Cc1c(N2C(=O)N(CCCOc3ccc(-c4ccncc4)cc3Cl)C(C)(C)C2=O)ccc(C#N)c1Cl [EM-9251]											119±24% and 119 ± 24 (n = 2) %	27 ± 1 (n = 2) %	41 ± 2 (n = 2) %		selective androgen receptor modulators	253	0.0677	times more potent than OH-flutamide on the human AR (RBA ratio) (Human Androgen Receptor; versus hydroxyflutamide): 1200 times; % of stimulation at 10^−7M on basal Shionogi cells ([1]; basal (no DHT), 10^−7M): 38%; activity on the bulbocavernosus muscles (in words) [4, 11]: agonistic activity; activity on the prostate and seminal vesicles (in words) [4, 11]: mixed agonistic-antagonistic activity; activity on the bulbocavernosus muscles (in words) ([5]; immature intact rat): agonistic activity; activity on the prostate and seminal vesicles (in words) ([5]; immature intact rat): antagonistic activity; inhibition of intact rat prostate ([5]; intact immature rat, 7 days): 25±4%; inhibition of intact rat seminal vesicles ([5]; intact immature rat, 7 days): 35±7%; stimulation of the bulbocavernosus muscles in intact rat ([5]; intact immature rat, 7 days): 77±6%
CC1(C)NC(=O)N(c2ccc(C#N)c(Cl)c2)C1=O [EM-9260]											4%	2%	0%		antiandrogens	~0.1	~0.1	share of the plasma exposure of EM-9150 [6]: approximately 90%
C[C@]12CC[C@H]3[C@@H](CCC4=CC(=O)CC[C@@]43C)[C@@H]1CC[C@@H]2O [Testosterone]																		CX Agonistic activity % Stimulation Bulbo [7]: 171%; CX Agonistic activity % Stimulation Prostate [7]: 99%
